From publication PMC11697083 (Nature Communications, 2025) come the findings set out here.

The term IC50 denotes the concentration at which inhibition is half-maximal. Higher therefore signals weaker potency.

Each structure is given as a SMILES string.

Holding throughout (assay type): biochemical
The target of one assay is T1, KIF18A (Homo sapiens, UniProt Q8NI77).
T1 sequence (Q8NI77 1-374): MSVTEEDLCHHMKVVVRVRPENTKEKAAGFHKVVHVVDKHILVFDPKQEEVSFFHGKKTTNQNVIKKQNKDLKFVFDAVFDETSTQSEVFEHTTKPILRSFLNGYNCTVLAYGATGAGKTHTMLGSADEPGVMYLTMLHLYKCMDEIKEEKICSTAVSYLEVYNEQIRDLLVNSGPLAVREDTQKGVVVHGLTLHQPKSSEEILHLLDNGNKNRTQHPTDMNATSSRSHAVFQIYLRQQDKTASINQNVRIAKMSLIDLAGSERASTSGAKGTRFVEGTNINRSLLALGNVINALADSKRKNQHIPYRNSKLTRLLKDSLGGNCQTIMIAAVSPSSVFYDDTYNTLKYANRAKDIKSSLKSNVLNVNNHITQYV
Kind of assay: ADP-Glo ATPase assay at varied ATP. A general note: ADP-Glo turns the ADP formed in a reaction into a luminescent signal.

A further assay concerns the target T2, KIF19 (Homo sapiens, UniProt Q2TAC6).
T2 sequence (Q2TAC6 1-998): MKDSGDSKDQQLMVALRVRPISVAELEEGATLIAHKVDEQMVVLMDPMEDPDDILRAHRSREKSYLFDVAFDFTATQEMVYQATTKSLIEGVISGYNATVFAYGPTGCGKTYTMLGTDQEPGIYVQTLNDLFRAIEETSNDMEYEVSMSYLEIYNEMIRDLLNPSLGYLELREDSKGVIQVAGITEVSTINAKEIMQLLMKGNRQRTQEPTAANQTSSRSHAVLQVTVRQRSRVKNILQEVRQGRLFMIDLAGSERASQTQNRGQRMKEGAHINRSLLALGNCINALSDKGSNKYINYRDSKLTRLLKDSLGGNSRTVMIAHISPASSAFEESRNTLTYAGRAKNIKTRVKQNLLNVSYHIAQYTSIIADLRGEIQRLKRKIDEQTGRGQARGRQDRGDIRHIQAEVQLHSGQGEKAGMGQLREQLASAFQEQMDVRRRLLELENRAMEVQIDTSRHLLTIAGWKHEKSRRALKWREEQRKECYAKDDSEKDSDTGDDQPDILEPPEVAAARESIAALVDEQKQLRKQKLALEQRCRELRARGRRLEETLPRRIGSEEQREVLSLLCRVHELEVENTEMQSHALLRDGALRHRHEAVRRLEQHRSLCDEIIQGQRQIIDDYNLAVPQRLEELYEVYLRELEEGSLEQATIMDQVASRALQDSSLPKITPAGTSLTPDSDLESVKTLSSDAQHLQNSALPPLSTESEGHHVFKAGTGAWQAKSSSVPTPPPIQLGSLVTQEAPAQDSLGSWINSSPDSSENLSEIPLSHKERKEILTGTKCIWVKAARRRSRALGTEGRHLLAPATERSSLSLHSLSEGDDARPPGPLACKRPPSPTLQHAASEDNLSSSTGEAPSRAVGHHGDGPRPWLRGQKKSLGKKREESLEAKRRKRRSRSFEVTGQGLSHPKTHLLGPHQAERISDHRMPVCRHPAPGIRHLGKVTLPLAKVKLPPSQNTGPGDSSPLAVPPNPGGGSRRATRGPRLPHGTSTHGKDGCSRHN
Kind of assay: ADP-Glo ATPase assay.

For a further assay, the target named is T3, Murine KIF18A (Mus musculus, UniProt Q91WD7).
T3 sequence (Q91WD7 1-886): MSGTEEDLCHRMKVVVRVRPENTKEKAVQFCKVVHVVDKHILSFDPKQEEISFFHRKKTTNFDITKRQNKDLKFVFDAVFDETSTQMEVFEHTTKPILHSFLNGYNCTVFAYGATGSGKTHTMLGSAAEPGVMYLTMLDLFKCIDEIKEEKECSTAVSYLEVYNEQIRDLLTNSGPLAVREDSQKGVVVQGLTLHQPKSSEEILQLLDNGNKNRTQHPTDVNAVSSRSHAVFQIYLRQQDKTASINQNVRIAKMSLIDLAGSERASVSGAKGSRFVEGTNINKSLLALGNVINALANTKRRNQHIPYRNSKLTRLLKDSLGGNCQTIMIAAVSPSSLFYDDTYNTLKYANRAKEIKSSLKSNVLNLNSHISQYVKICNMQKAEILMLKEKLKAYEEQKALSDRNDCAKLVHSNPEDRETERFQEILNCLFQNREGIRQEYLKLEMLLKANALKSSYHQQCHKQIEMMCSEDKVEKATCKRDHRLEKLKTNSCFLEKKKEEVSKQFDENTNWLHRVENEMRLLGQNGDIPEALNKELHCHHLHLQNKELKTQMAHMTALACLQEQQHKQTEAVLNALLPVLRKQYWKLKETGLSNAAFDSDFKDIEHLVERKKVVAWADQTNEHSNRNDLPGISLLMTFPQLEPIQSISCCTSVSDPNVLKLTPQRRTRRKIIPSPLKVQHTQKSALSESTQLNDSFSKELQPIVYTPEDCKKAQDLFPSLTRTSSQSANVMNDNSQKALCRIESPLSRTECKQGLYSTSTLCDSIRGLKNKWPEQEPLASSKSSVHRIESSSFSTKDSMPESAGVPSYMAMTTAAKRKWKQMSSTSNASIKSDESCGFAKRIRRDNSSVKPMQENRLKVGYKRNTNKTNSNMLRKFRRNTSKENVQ
Briefly: ADP-Glo ATPase assay.

Consider `O=[N+]([O-])c1cc(Cl)ccc1S(=O)(=O)c1ccccc1` [BTB-1], for which the IC50 against KIF18A is 2200 nM.
Consider `CC(C)(C)NS(=O)(=O)c1cccc(C(=O)N2CC3(CCC4(CC4)CC3)c3cc(NS(C)(=O)=O)ccc32)c1` [compound 11, N-(tert-butyl)-3-(5”-(methylsulfonamido)dispiro[cyclopropane-1,1’-cyclohexane-4’,3”-indoline]-1”-carbonyl)benzenesulfonamide], for which the results for the IC50 at KIF19 and at Murine KIF18A were 280 nM and 8.8 nM, respectively.
